{"source": "patent US20130269058A1", "about": "“PLANTS RESISTANT TO FUNGAL PATHOGENS AND METHODS FOR PRODUCTION THEREOF” (GENOPLANTE-VALOR, priority 2010, published 2013)", "key": {"[1]": {"system": "WAK91 gene expression", "assay": "Chitin sprayed on healthy rice plants; WAK91 expression by QRT-PCR normalized by actin", "assay_type": "in vivo, rice (Oryza sativa L., cultivar Nipponbare)", "description": "(§1) FIG. 2: Chitin induces WAK91 expression. Chitin fragments (two concentrations) were sprayed on healthy rice plants. Chitin alone is sufficient to induce WAK91 (up to 4×) in entire plants after 15 minutes. The PR5 and PDX223 classical defense genes are induced later. (A) The expression value of the WAK91, PR5 and PDX223 gene expression (normalized by actin) was measured at the indicated time after treatment. (B) The expression value after chitin treatment was divided by the expression value in untreated plants and the ratio was log transformed.\n(§2) Gene expression was performed using Quantitative RT-PCR as described in Vergne et al (2007). For RT-QPCR applications, frozen tissue were ground in liquid nitrogen. Approximately 500 μl of powder was then treated with 1 ml of TRIZOL supplied by Invitrogen, vortexed for 30 s and incubated at room temperature for 15 minutes. […] Two microlitres of cDNA (dilution 1/10) were then used for quantitative RT-PCR. Quantitative RT-PCR mixtures contained PCR buffer, dNTP (0.25 mM), MgCl2 (2.5 mM), forward and reverse primers ([…]), 1 U of HotGoldStar polymerase and SYBR Green PCR mix as per the manufacturer's recommendations (Eurogentec, Seraing, Belgium). […] The quantitative RT-PCR (QRT-PCR) reactions were performed using a MX3000P machine (Stratagene) and data were extracted using the MX3000P software. […]"}, "[2]": {"system": "PR5 and PDX223 classical defense genes", "assay": "Chitin sprayed on healthy rice plants; defense gene expression by QRT-PCR normalized by actin", "assay_type": "in vivo, rice (Oryza sativa L., cultivar Nipponbare)", "conditions": "chitin fragments sprayed on healthy rice plants; timing relative to WAK91 induction", "description": "as §1, §2"}}, "data": [{"substance": "chitin", "values": [{"measurement": "induction of WAK91 expression", "setting": "[1]; chitin fragments (two concentrations) sprayed on healthy rice plants, entire plants, after 15 minutes, versus untreated plants", "result": "up to 4 ×"}, {"measurement": "WAK91 induction (in words)", "setting": "[1]; chitin used as described in Miya et al (2007), FIG. 2", "result": "sufficient to cause WAK91 induction"}, {"measurement": "induction of PR5 and PDX223 defense genes (in words)", "setting": "[2]", "result": "induced later"}]}]}
